Data as given in ChEMBL document CHEMBL5634182, “Antifungal Pseuboyenes A-J, Bergamotene-Derived Sesquiterpenoids from a Cold-Seep-Derived Pseudallescheria boydii” (J Nat Prod, 2024).

Tests used:
Fusarium oxysporum = experiment: Antifungal activity against Fusarium oxysporum QDAU-8 assessed as reduction in microbial growth by broth microdilution method; assay type: functional
Micrococcus luteus = experiment: Antibacterial activity against Micrococcus luteus QDIO-3 assessed as reduction in microbial growth by broth microdilution method; assay type: functional
Curvularia spicifera = experiment: Antifungal activity against Curvularia spicifera QDAU-18 assessed as reduction in microbial growth by broth microdilution method; assay type: functional
[1] = tested on: Ceratobasidium cornigerum; experiment: Antifungal activity against Ceratobasidium cornigerum QDAU-6 assessed as reduction in microbial growth by broth microdilution method; assay type: functional
Penicillium digitatum = experiment: Antifungal activity against Penicillium digitatum QDAU-14 assessed as reduction in microbial growth by broth microdilution method; assay type: functional
[2] = tested on: Botryosphaeria berengeriana; experiment: Antifungal activity against Physalospora piricola QDAU-15 assessed as reduction in microbial growth by broth microdilution method; assay type: functional
[3] = tested on: Colletotrichum gloeosporioides; experiment: Antifungal activity against Colletotrichum gloeosporioides QDAU-17 assessed as reduction in microbial growth by broth microdilution method; assay type: functional
Vibrio harveyi = experiment: Antibacterial activity against Vibrio harveyi QDIO-7 assessed as reduction in microbial growth by broth microdilution method; assay type: functional
Escherichia coli = experiment: Antibacterial activity against Escherichia coli EMBLC-1 assessed as reduction in microbial growth by broth microdilution method; assay type: functional
Fusarium graminearum = experiment: Antifungal activity against Fusarium graminearum QDAU-4 assessed as reduction in microbial growth by broth microdilution method; assay type: functional
Edwardsiella tarda = experiment: Antibacterial activity against Edwardsiella tarda QDIO-2 assessed as reduction in microbial growth by broth microdilution method; assay type: functional
[4] = tested on: Colletotrichum gloeosporioides; experiment: Antifungal activity against Colletotrichum gloeosporioides QDAU-2 assessed as reduction in microbial growth by broth microdilution method; assay type: functional
Alternaria brassicae = experiment: Antifungal activity against Alternaria brassicae QDAU-16 assessed as reduction in microbial growth by broth microdilution method; assay type: functional
Vibrio vulnificus = experiment: Antibacterial activity against Vibrio vulnificus QDIO-10 assessed as reduction in microbial growth by broth microdilution method; assay type: functional
Vibrio anguillarum = experiment: Antibacterial activity against Vibrio anguillarum QDIO-6 assessed as reduction in microbial growth by broth microdilution method; assay type: functional
Fusarium proliferatum [5] = experiment: Antifungal activity against Fusarium proliferatum QDAU-19 assessed as reduction in microbial growth by broth microdilution method; assay type: functional
Coniella diplodiella = experiment: Antifungal activity against Coniothyrium diplodiella QDAU-7 assessed as reduction in microbial growth by broth microdilution method; assay type: functional
Pseudomonas aeruginosa = experiment: Antibacterial activity against Pseudomonas aeruginosa QDIO-4 assessed as reduction in microbial growth by broth microdilution method; assay type: functional
HepG2 = experiment: Cytotoxicity against human HepG2 cells assessed as reduction in cell viability at 20 uM; assay type: functional, cell-based
HCT-116 = experiment: Cytotoxicity against human HCT-116 cells assessed as reduction in cell viability at 20 uM; assay type: functional, cell-based
GBC-SD = experiment: Cytotoxicity against human GBC-SD cells assessed as reduction in cell viability at 20 uM; assay type: functional, cell-based
786-0 = experiment: Cytotoxicity against human 786-0 cells assessed as reduction in cell viability at 20 uM; assay type: functional, cell-based
MKN-45 = experiment: Cytotoxicity against human MKN-45 cells assessed as reduction in cell viability at 20 uM; assay type: functional, cell-based
DU-145 = experiment: Cytotoxicity against human DU-145 cells assessed as reduction in cell viability at 20 uM; assay type: functional, cell-based
MCF7 = experiment: Cytotoxicity against human MCF7 cells assessed as reduction in cell viability at 20 uM; assay type: functional, cell-based
A673 = experiment: Cytotoxicity against human A673 cells assessed as reduction in cell viability at 20 uM; assay type: functional, cell-based
CAL-62 = experiment: Cytotoxicity against human CAL-62 cells assessed as reduction in cell viability at 20 uM; assay type: functional, cell-based
K562 = experiment: Cytotoxicity against human K562 cells assessed as reduction in cell viability at 20 uM; assay type: functional, cell-based
Fusarium proliferatum [6] = experiment: Antifungal activity against Fusarium proliferatum assessed as reduction in microbial growth measured after 72 hrs; assay type: functional, organism-based
L02 = experiment: Cytotoxicity against human L02 cells assessed as reduction in cell viability at 20 uM; assay type: functional, cell-based
HEK-293T = experiment: Cytotoxicity against human HEK293T cells assessed as reduction in cell viability at 20 uM; assay type: toxicity, cell-based
HeLa = experiment: Cytotoxicity against human HeLa cells assessed as reduction in cell viability at 20 uM; assay type: functional, cell-based
TE-1 = experiment: Cytotoxicity against human TE-1 cells assessed as reduction in cell viability at 20 uM; assay type: functional, cell-based
HOS = experiment: Cytotoxicity against human HOS cells assessed as reduction in cell viability at 20 uM; assay type: functional, cell-based
A-375 = experiment: Cytotoxicity against human A-375 cells assessed as reduction in cell viability at 20 uM; assay type: functional, cell-based
5637 = experiment: Cytotoxicity against human 5637 cells assessed as reduction in cell viability at 20 uM; assay type: functional, cell-based
SF-126 = experiment: Cytotoxicity against human SF-126 cells assessed as reduction in cell viability at 20 uM; assay type: functional, cell-based
A549 = experiment: Cytotoxicity against human A549 cells assessed as reduction in cell viability at 20 uM; assay type: functional, cell-based
PaTu 8988t = experiment: Cytotoxicity against human PaTu 8988t cells assessed as reduction in cell viability at 20 uM; assay type: functional, cell-based

With `C=C1CC[C@@]2(O)C[C@@H]1[C@]2(C)CC(=O)C=C(C)C` the MIC (Fusarium oxysporum) was 8 mg/L, the MIC (Micrococcus luteus) was 16 mg/L and the MIC (Curvularia spicifera) was 2 mg/L. The MIC [1] was 4 mg/L, the MIC (Penicillium digitatum) was 4 mg/L and the MIC [2] was 16 mg/L. For the same molecule, the MIC [3] was 8 mg/L, the MIC (Vibrio harveyi) was 16 mg/L and the MIC (Escherichia coli) was over 64 mg/L. For the same molecule, the MIC (Fusarium graminearum) was 4 mg/L, the MIC (Edwardsiella tarda) was over 64 mg/L and the MIC [4] was 8 mg/L. For the same molecule, the MIC (Alternaria brassicae) was 1 mg/L, the MIC (Vibrio vulnificus) was 8 mg/L and the MIC (Vibrio anguillarum) was over 64 mg/L. It also gave an MIC (Fusarium proliferatum [5]) of 8 mg/L, an MIC (Coniella diplodiella) of 4 mg/L and an MIC (Pseudomonas aeruginosa) of 32 mg/L.

Molecule `C=C1C(=O)C[C@@]2(C)C[C@@H]1[C@](C)([C@H](O)CC=C(C)C)O2` has an MIC (Fusarium oxysporum) of 4 mg/L, an MIC (Curvularia spicifera) of 8 mg/L and an MIC [1] of 8 mg/L. For the same molecule, the MIC (Penicillium digitatum) was 4 mg/L, the MIC [2] was 4 mg/L and the MIC [3] was 8 mg/L. For the same molecule, the MIC (Fusarium graminearum) was 1 mg/L, the MIC [4] was 4 mg/L and the MIC (Alternaria brassicae) was 4 mg/L. It also gave an MIC (Fusarium proliferatum [5]) of 16 mg/L and an MIC (Coniella diplodiella) of 4 mg/L.

In the case of `C=C1CC[C@@]2(O)C[C@@H]1[C@]2(C)[C@@H](/C=C/C(C)(C)O)OC(C)=O`, the MIC (Fusarium oxysporum) is reported as 2 mg/L, the MIC (Curvularia spicifera) is reported as 2 mg/L and the Activity (HepG2) is reported as “Not toxic”. The Activity (HCT-116) was “Not toxic”, the Activity (GBC-SD) was “Not toxic” and the Activity (786-0) was “Not toxic”. The Activity (MKN-45) was “Not toxic”, the Activity (DU-145) was “Not toxic” and the MIC [1] was 4 mg/L. For the same molecule, the MIC (Penicillium digitatum) was 4 mg/L, the MIC [2] was 8 mg/L and the Activity (MCF7) was “Not toxic”. For the same molecule, the Activity (A673) was “Not toxic”, the Activity (CAL-62) was “Not toxic” and the Activity (K562) was “Not toxic”. The EC50 (Fusarium proliferatum [6]) was 1 mg/L, the Activity (Fusarium proliferatum [6]; dose <= 100.0 µg/ml) was “Dose-Dependent Effect” and the MIC [3] was 8 mg/L. The Activity (L02) was “Not toxic”, the MIC (Fusarium graminearum) was 4 mg/L and the Activity (HEK-293T) was “Non-Toxic”. The MIC [4] was 4 mg/L, the MIC (Alternaria brassicae) was 0.5 mg/L and the Activity (HeLa) was “Not toxic”. The Activity (TE-1) was “Not toxic”, the Activity (HOS) was “Not toxic” and the Activity (A-375) was “Not toxic”. For the same molecule, the MIC (Fusarium proliferatum [5]) was 0.5 mg/L, the Activity 5637 was “Not toxic” and the Activity (SF-126) was “Not toxic”. The MIC (Coniella diplodiella) was 0.5 mg/L, the Activity (A549) was “Not toxic” and the Activity (PaTu 8988t) was “Not toxic”.

For `C[C@@H]1[C@H](O)[C@@H](C)/C=C/C=C/C=C/C=C/C=C/C=C/C=C/[C@H](O[C@@H]2O[C@H](C)[C@@H](O)[C@H](N)[C@@H]2O)C[C@@H]2O[C@](O)(C[C@@H](O)C[C@@H](O)[C@H](O)CC[C@@H](O)C[C@@H](O)CC(=O)O[C@H]1C)C[C@H](O)[C@H]2C(=O)O` [AMPHOTERICIN B], the MIC (Fusarium oxysporum) was 4 mg/L, the MIC (Curvularia spicifera) was 0.5 mg/L and the MIC [1] was 8 mg/L. It also gave an MIC (Penicillium digitatum) of 4 mg/L, an MIC [2] of 8 mg/L and an MIC [3] of 8 mg/L. It also gave an MIC (Fusarium graminearum) of 2 mg/L, an MIC [4] of 2 mg/L and an MIC (Alternaria brassicae) of 0.5 mg/L. The MIC (Fusarium proliferatum [5]) was 1 mg/L and the MIC (Coniella diplodiella) was 0.5 mg/L.

With `C=C1CC[C@@]2(C[C@@H](O)C(=O)OC)C[C@@H]1[C@](C)([C@H](O)CC=C(C)C)O2` the MIC (Fusarium oxysporum) was 16 mg/L, the MIC (Micrococcus luteus) was over 64 mg/L and the MIC (Curvularia spicifera) was 4 mg/L. For the same molecule, the MIC [1] was 64 mg/L, the MIC (Penicillium digitatum) was 8 mg/L and the MIC [2] was 64 mg/L. It also gave an MIC [3] of 64 mg/L, an MIC (Vibrio harveyi) of over 64 mg/L and an MIC (Escherichia coli) of over 64 mg/L. The MIC (Fusarium graminearum) was 4 mg/L, the MIC (Edwardsiella tarda) was over 64 mg/L and the MIC [4] was 4 mg/L. For the same molecule, the MIC (Alternaria brassicae) was 8 mg/L, the MIC (Vibrio vulnificus) was 64 mg/L and the MIC (Vibrio anguillarum) was 16 mg/L. The MIC (Fusarium proliferatum [5]) was 4 mg/L, the MIC (Coniella diplodiella) was 4 mg/L and the MIC (Pseudomonas aeruginosa) was over 64 mg/L.

`C=C1CC[C@@]2(O)C[C@@H]1[C@]2(C)[C@H](OC(C)=O)C(=O)C=C(C)C` showed an MIC (Fusarium oxysporum) of 16 mg/L, an MIC (Curvularia spicifera) of 1 mg/L and an MIC [1] of 8 mg/L. It also gave an MIC (Penicillium digitatum) of 8 mg/L, an MIC [2] of 32 mg/L and an MIC [3] of 16 mg/L. For the same molecule, the MIC (Fusarium graminearum) was 2 mg/L, the MIC [4] was 4 mg/L and the MIC (Alternaria brassicae) was 4 mg/L. It also gave an MIC (Fusarium proliferatum [5]) of 2 mg/L and an MIC (Coniella diplodiella) of 4 mg/L.
